Laboratory results from PubChem BioAssay (NCI).
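1) Cells in 96-well plates. 2) Compound, 48 h, 5 concentrations. 3) Linear interpolation between surrounding doses. 4) Unreached endpoint = highest concentration. At the GI50, growth is halved. At the TGI there is no net growth.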 Where a SMILES comes first, the peptide text is derived from it. The star is where a group is joined. Boc = CC(C)(C)OC(=O)*

Assays:
Experiment in all cases: DTP human tumour cell line panel, 48 h
[1] = system: K-562 leukemia
[2] = system: BT-549 breast
[3] = system: SF-268 CNS
[4] = system: MDA-MB-231 breast
[5] = system: 786-0 renal
[6] = system: HOP-62 NSCLC
[7] = system: U251 CNS
[8] = system: SK-OV-3 ovarian
[9] = system: NCI-H460 lung
[10] = system: HCC-2998 colon
[11] = system: SK-MEL-2 melanoma

## O=C(NCCCCCCNC(=O)c1cc(-c2ccccc2)nc2ccccc12)c1cc(-c2ccccc2)nc2ccccc12
[1]
  TGI: > 100 µM
[2]
  TGI: > 100 µM
[3]
  TGI: > 100 µM
[4]
  TGI: > 100 µM
[5]
  TGI: > 100 µM
[6]
  TGI: > 100 µM
[7]
  TGI: > 100 µM
[8]
  TGI: > 100 µM
[9]
  TGI: > 100 µM

## CC(C)/C(Cl)=N\OC(=O)Nc1cccc(Cl)c1
[1]
  TGI: 4.7 µM
[10]
  TGI: 31.7 µM
[3]
  TGI: 47.2 µM
[4]
  TGI: 30.3 µM
[11]
  TGI: 30 µM
[5]
  TGI: 29.1 µM
[6]
  TGI: > 86.1 µM
[7]
  TGI: 34.4 µM
[8]
  TGI: > 58.2 µM
[9]
  TGI: 18.6 µM

## C=C(Br)CNC(=O)CCC(=O)NCC(=C)Br
[1]
  TGI: > 100 µM
[10]
  TGI: > 100 µM
[3]
  TGI: > 100 µM
[4]
  TGI: > 100 µM
[11]
  TGI: > 100 µM
[5]
  TGI: > 100 µM
[6]
  TGI: > 100 µM
[7]
  TGI: > 100 µM
[8]
  TGI: > 100 µM
[9]
  TGI: > 100 µM

## C=C1C2C[C@@H]3O[C@H]4C[C@H]5O[C@@]6(C[C@@H]7O[C@]8(C[C@H](C)[C@@H]9O[C@@H]%10CC(CO)O[C@@H]%10C[C@@H]9O8)C[C@H](C)[C@@H]7O6)C[C@H]5O[C@H]4[C@H](C)[C@H]3OC(=O)C[C@H]3CC[C@@H]4OC5[C@H]6O[C@]7(CC[C@H]8CC(=C)[C@H](CC[C@@H](C[C@H]1C)O2)O8)CC6O[C@@H]5[C@@H](O7)[C@H]4O3 (some centres undefined)
[1]
  TGI: > 1 µM
[2]
  TGI: < 0.0001 µM
[3]
  TGI: > 0.874 µM
[4]
  TGI: > 1 µM
[11]
  TGI: > 1 µM
[5]
  TGI: > 0.413 µM
[6]
  TGI: > 1 µM
[7]
  TGI: > 1 µM
[8]
  TGI: > 1 µM

## CCC(=O)Nc1ccc(N2C(=O)C(Cl)C2c2ccc(SC)cc2)cc1 (centres undefined)
[1]
  TGI: > 100 µM
[10]
  TGI: 96.9 µM
[2]
  TGI: > 100 µM
[3]
  TGI: > 100 µM
[11]
  TGI: > 100 µM
[5]
  TGI: > 100 µM
[6]
  TGI: > 100 µM
[8]
  TGI: > 100 µM
[9]
  TGI: > 100 µM

## COc1ccc(-c2cc3[nH]nc(N)c3c(=O)o2)cc1
[1]
  TGI: > 100 µM
[10]
  TGI: > 100 µM
[3]
  TGI: > 100 µM
[11]
  TGI: > 100 µM
[7]
  TGI: > 100 µM
[9]
  TGI: > 100 µM

## Cc1ccnc(NC(NC(=O)c2ccccc2)(C(F)(F)F)C(F)(F)F)c1
[1]
  TGI: > 100 µM
[10]
  TGI: > 100 µM
[2]
  TGI: > 100 µM
[3]
  TGI: > 100 µM
[4]
  TGI: > 100 µM
[11]
  TGI: > 100 µM
[5]
  TGI: > 100 µM
[6]
  TGI: > 100 µM
[7]
  TGI: > 100 µM
[8]
  TGI: > 100 µM

## COC(=O)c1c2cccccc-2c(Cc2c3cccccc-3c(C(=O)OC)c2O)c1O
[1]
  TGI: > 100 µM
[10]
  TGI: > 100 µM
[3]
  TGI: > 100 µM
[11]
  TGI: > 100 µM
[5]
  TGI: > 100 µM
[6]
  TGI: > 100 µM
[7]
  TGI: > 100 µM
[8]
  TGI: > 100 µM
[9]
  TGI: > 100 µM

## CCOC(=O)NC(Nc1ccc(C(=O)OCC)cc1)(C(F)(F)F)C(F)(F)F
[1]
  TGI: > 100 µM
[10]
  TGI: > 100 µM
[2]
  TGI: > 100 µM
[3]
  TGI: > 100 µM
[4]
  TGI: > 100 µM
[5]
  TGI: > 100 µM
[6]
  TGI: > 100 µM
[7]
  TGI: > 100 µM
[8]
  TGI: > 100 µM
[9]
  TGI: > 100 µM

## COC(=O)C(Cc1c[nH]c2ccccc12)NC(=O)C(Cc1c[nH]c2ccccc12)NC(=O)C(Cc1c[nH]c2ccccc12)NC(=O)C(Cc1c[nH]c2ccccc12)NC(=O)C(Cc1c[nH]c2ccccc12)NC(=O)C(Cc1c[nH]c2ccccc12)NC(=O)C(Cc1c[nH]c2ccccc12)NC(=O)C(Cc1c[nH]c2ccccc12)NC(=O)OC(C)(C)C (centres undefined) (Boc-WWWWWWWW-OMe; configuration not given here)
[1]
  TGI: > 100 µM
[10]
  TGI: > 100 µM
[2]
  TGI: > 100 µM
[3]
  TGI: > 100 µM
[4]
  TGI: > 100 µM
[11]
  TGI: > 100 µM
[5]
  TGI: > 100 µM
[6]
  TGI: > 100 µM
[7]
  TGI: > 100 µM
[9]
  TGI: > 100 µM

## COCN1C(=O)[C@@H]2CCCN2C(=O)c2cc(N)ccc21
[2]
  TGI: > 100 µM
[3]
  TGI: > 100 µM
[4]
  TGI: > 100 µM
[11]
  TGI: > 100 µM
[5]
  TGI: > 100 µM
[6]
  TGI: > 100 µM
[7]
  TGI: > 100 µM
[8]
  TGI: > 100 µM

## CC(=O)O[C@H]1C(=O)[C@@]2(C)C(C(OC(=O)c3ccccc3)C3[C@@H](O)C(OC(=O)[C@@H](O)[C@H](NC(=O)c4ccccc4)c4ccc(C(F)(F)F)cc4)C(C)=C1C3(C)C)[C@]1(OC(C)=O)CO[C@@H]1C[C@@H]2O (some centres undefined)
[1]
  TGI: > 25 µM
[10]
  TGI: > 25 µM
[3]
  TGI: > 25 µM
[11]
  TGI: > 25 µM
[5]
  TGI: > 25 µM
[6]
  TGI: > 25 µM
[7]
  TGI: > 25 µM
[8]
  TGI: > 25 µM
[9]
  TGI: > 25 µM

## Oc1ccc2c(c1)-c1c(c3ccccc3n1CCN1CCOCC1)CC2
[1]
  TGI: > 100 µM
[2]
  TGI: > 100 µM
[3]
  TGI: > 100 µM
[4]
  TGI: > 100 µM
[11]
  TGI: 69.4 µM
[5]
  TGI: > 100 µM
[6]
  TGI: > 100 µM
[7]
  TGI: > 100 µM
[8]
  TGI: 85.2 µM
[9]
  TGI: > 100 µM

## CC(=O)OCC1OC(n2c(-c3ccc(C)cc3)cc(-c3ccccc3)c(C#N)c2=S)C(OC(C)=O)C(OC(C)=O)C1OC(C)=O (centres undefined)
[1]
  TGI: > 100 µM
[10]
  TGI: > 100 µM
[2]
  TGI: > 100 µM
[3]
  TGI: > 100 µM
[4]
  TGI: > 100 µM
[5]
  TGI: > 100 µM
[6]
  TGI: > 100 µM
[7]
  TGI: > 100 µM
[8]
  TGI: > 100 µM
[9]
  TGI: > 100 µM

## COc1cc(/C=c2\sc3n(c2=O)C(c2ccc(Cl)cc2)C2=C(CCCC2C)N=3)cc(OC)c1OC (centres undefined)
[1]
  TGI: > 100 µM
[3]
  TGI: > 100 µM
[4]
  TGI: > 100 µM
[11]
  TGI: > 100 µM
[5]
  TGI: > 100 µM
[6]
  TGI: > 100 µM
[7]
  TGI: > 100 µM
[8]
  TGI: > 100 µM

## CN(C)c1nc(Cl)c2c(-c3ccccc3)c(-c3ccccc3)oc2n1
[1]
  TGI: > 100 µM
[10]
  TGI: > 100 µM
[2]
  TGI: 97.7 µM
[3]
  TGI: > 100 µM
[4]
  TGI: > 100 µM
[5]
  TGI: > 100 µM
[7]
  TGI: > 100 µM
[8]
  TGI: > 100 µM

## BrC(c1cccc2ccccc12)c1cccc2ccccc12
[1]
  TGI: > 100 µM
[2]
  TGI: 39.3 µM
[3]
  TGI: 26.6 µM
[4]
  TGI: 28 µM
[11]
  TGI: 30.1 µM
[5]
  TGI: 28.2 µM
[6]
  TGI: 27.1 µM
[7]
  TGI: 30.6 µM
[9]
  TGI: 30.4 µM

## COc1cc2c(cc1OCCCC(=O)Nc1ccc3ccc4cccc5ccc1c3c45)N=C[C@@H]1CCCN1C2=O
[1]
  GI50: 0.19 µM
  TGI: 14.1 µM
[10]
  GI50: < 0.01 µM
  TGI: < 0.0157 µM
[3]
  GI50: 0.27 µM
  TGI: 0.864 µM
[4]
  GI50: 0.0135 µM
  TGI: 0.051 µM
[11]
  GI50: < 0.01 µM
  TGI: < 0.01 µM
[6]
  GI50: < 0.01 µM
  TGI: 1.74 µM
[7]
  GI50: < 0.01 µM
  TGI: > 100 µM
[8]
  GI50: 10.3 µM
  TGI: 46.9 µM
[9]
  GI50: < 0.0484 µM
  TGI: 0.31 µM

## Cc1nc2c(=O)n(C)ncc2[nH]1
[1]
  TGI: > 100 µM
[2]
  TGI: > 100 µM
[3]
  TGI: > 100 µM
[4]
  TGI: > 100 µM
[11]
  TGI: > 100 µM
[5]
  TGI: > 100 µM
[6]
  TGI: > 100 µM
[7]
  TGI: > 100 µM
[9]
  TGI: > 100 µM

## COI1NC(=O)c2ccccc21
[1]
  TGI: > 100 µM
[3]
  TGI: > 100 µM
[4]
  TGI: > 100 µM
[11]
  TGI: > 100 µM
[5]
  TGI: > 100 µM
[6]
  TGI: > 100 µM
[7]
  TGI: > 100 µM
[8]
  TGI: > 100 µM
